Data set [1] concerns the target Delta-type opioid receptor (Homo sapiens, UniProt P41143). Briefly: Agonist activity at human DOR expressed in HEK293 cells assessed as inhibition of forskolin-induced adenylyl cyclase-mediated cAMP accumulation after 30 mins by HTRF assay. Format: functional, cell-based. On the technique in general: Cyclic AMP is a second messenger, typically raised through Gs and lowered through Gi signalling.

In data set [2] the target is T1, Mu-type opioid receptor (Homo sapiens, UniProt P35372). The data set can be described thus: Agonist activity at human MOR expressed in HEK293 cells assessed as inhibition of forskolin-induced adenylyl cyclase-mediated cAMP accumulation after 30 mins by HTRF assay. The class given is functional, cell-based.
The target in data set [3] is T2, Kappa-type opioid receptor (Homo sapiens, UniProt P41145). The data set can be described thus: Agonist activity at human KOR expressed in HEK293 cells assessed as inhibition of forskolin-induced adenylyl cyclase-mediated cAMP accumulation after 30 mins by HTRF assay. The class given is functional, cell-based.
For data set [4], the target named is T1, Mu-type opioid receptor. The data set can be described thus: Displacement of [3H]naloxone from recombinant human MOR expressed in HEK cell membranes incubated for 60 mins. Background: Loss of bound radioactivity is the signal in a displacement assay; it reports binding, not function.
Data set [5] can be described thus: Drug uptake in […] mouse plasma at 3 mg/kg, iv measured after 0.8 hrs by LC-MS/MS analysis. Format: ADME, organism-based.
The nature of data set [6]: Drug uptake in […] mouse brain at 3 mg/kg, iv measured after 0.8 hrs by LC-MS/MS analysis. The settings on record: read-out: Drug uptake. Format: ADME, organism-based.
A short description of data set [7]: Ratio of drug level in brain to plasma in […] mouse at 3 mg/kg, iv measured after 0.8 hrs. Format: ADME, organism-based. Conditions: read-out: BPR.
The target of data set [8] is T1, Mu-type opioid receptor. Briefly: Agonist activity at myc-tagged MOR (unknown origin) expressed in mouse AtT-20 cells harboring GIRK1/GIRK2 channels assessed as membrane potential hyperpolarization at 1 uM in presence of naloxone by FLIPR membrane potential. Format: cell-based.
Data set [9] concerns Mus musculus. Briefly: Antinociceptive activity in iv dosed B6 mouse assessed as increase in tail flick latency at 3 mg/kg, iv measured at every 10 mins for 1 hr in presence of opioid antagonist naloxone. The class given is functional, organism-based.
Data set [10] has as its target T1, Mu-type opioid receptor. The data set can be described thus: Agonist activity at myc-tagged MOR (unknown origin) expressed in mouse AtT-20 cells harboring GIRK1/GIRK2 channels assessed as stimulation of membrane potential hyperpolarization at 1 uM by FLIPR assay. The class given is cell-based.
Data set [11] concerns Mus musculus. The data set can be described thus: Antinociceptive activity in B6 mouse assessed as AUC of thermal withdrawal effect at 3 mg/kg, iv measured at every 10 mins for 1 hr by tail flick assay. The class given is functional, organism-based. For orientation: Thermal pain tests record how soon the animal reacts.
For data set [12], the target named is T2, Kappa-type opioid receptor. The data set can be described thus: Agonist activity at human KOR expressed in HEK293 cells assessed as inhibition of forskolin-induced adenylyl cyclase-mediated cAMP accumulation at 1 uM after 30 mins in presence of KOR antagonist nor-binaltorphimine by HTRF assay. Format: functional, cell-based.
Data set [13] relates to Mus musculus. Briefly: Antinociceptive activity in iv dosed B6 mouse assessed as increase in tail flick latency at 3 mg/kg, iv measured at every 10 mins for 1 hr. The class given is functional.

The structures appear in SMILES notation. The source made the active and inactive calls. The rule behind the calls is not given here.

In general, IC50 refers to the concentration needed to halve the response being measured. A word on the Ki: it is a measure of affinity in units of concentration, obtained from inhibition or displacement. As a reminder, the ED50 is the midpoint of the dose-response relation.

Delta-type opioid receptor, sequence (P41143 whole entry): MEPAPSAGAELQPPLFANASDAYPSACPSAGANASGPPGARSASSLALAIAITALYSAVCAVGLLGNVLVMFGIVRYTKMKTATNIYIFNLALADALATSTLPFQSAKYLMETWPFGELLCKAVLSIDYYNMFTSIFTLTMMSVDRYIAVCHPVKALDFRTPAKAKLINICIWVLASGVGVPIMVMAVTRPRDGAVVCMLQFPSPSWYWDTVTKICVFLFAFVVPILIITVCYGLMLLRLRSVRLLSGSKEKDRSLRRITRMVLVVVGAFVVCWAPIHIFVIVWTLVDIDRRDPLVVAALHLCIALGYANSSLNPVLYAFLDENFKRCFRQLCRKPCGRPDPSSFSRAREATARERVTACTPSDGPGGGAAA
T2 sequence (P41145 whole entry): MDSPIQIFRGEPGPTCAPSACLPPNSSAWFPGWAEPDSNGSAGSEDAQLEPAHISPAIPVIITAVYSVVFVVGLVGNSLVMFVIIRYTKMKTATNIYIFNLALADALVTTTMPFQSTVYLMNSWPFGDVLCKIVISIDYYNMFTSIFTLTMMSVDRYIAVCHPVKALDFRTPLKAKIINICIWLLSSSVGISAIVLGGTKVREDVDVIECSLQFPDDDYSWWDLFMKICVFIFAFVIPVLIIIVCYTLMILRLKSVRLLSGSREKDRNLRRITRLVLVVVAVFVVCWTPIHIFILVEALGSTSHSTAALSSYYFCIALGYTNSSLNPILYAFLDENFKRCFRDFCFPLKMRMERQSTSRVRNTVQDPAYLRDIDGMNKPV
T1 sequence (P35372 whole entry): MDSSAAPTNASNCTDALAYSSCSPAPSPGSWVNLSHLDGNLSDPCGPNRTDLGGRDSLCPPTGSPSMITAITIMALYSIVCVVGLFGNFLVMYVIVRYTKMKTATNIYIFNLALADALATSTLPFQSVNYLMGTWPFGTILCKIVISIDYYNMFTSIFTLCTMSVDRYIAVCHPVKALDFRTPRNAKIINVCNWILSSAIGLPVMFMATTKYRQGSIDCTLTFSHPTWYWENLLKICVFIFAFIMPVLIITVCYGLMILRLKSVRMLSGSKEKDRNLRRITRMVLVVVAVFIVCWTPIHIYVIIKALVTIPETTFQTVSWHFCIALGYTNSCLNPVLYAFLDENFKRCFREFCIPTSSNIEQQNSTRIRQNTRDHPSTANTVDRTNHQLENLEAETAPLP

For `O=C(NCC1NCCc2ccccc21)c1ccc(OC(F)(F)F)cc1` (configuration not stated), the Imax stood at 22.7% in [1] and 38.2% in data set [3]. For the same molecule, the IC50 in data set [1] (read-out: IC50) worked out at 40 nM; on Mu-type opioid receptor [2] it was 1220 nM; in data set [3], 260 nM.
In the case of `O=C(NCC1NCCc2ccccc21)c1cccc(Cl)c1` (configuration not stated), the Imax turned out to be 21.1% in data set [1], 78.2% at Mu-type opioid receptor [2] and 26.9% in data set [3]. For the same molecule, the IC50 amounted to 170 nM in data set [1] (read-out: IC50), 2030 nM on Mu-type opioid receptor [2] and 1120 nM in [3].
For the molecule `O=C(NCC1NCCc2ccccc21)c1ccc(F)cc1` (configuration not stated), the results for the Imax in [1] and in data set [3] were 22% and 38.9%, respectively. Besides, the values for the half-maximal inhibitory concentration (IC50) (in [1] (read-out: IC50); at Mu-type opioid receptor [2]; in [3]) were 40 nM, 830 nM and 18600 nM, respectively.
For `CCCCN1CCc2ccccc2C1CNC(=O)c1ccc(C)cc1` (configuration not stated), the IC50 result in [1] (hek293) was “Not Active”; on Mu-type opioid receptor [2] it was 1330 nM; in data set [3], 780 nM. Further, the Imax was 69.3% at Mu-type opioid receptor [2] and 24.1% in data set [3].
Turning to `Cc1ccc(C(=O)NCC2c3ccccc3CCN2C)cc1` (configuration not stated), the IC50 entry in data set [1] (hek293) was “Not Active”; on Mu-type opioid receptor [2], 650 nM; in data set [3], 140 nM. Besides, the Ki at Mu-type opioid receptor [4] came to 5.28 nM. Also, the Imax is 72.4% on Mu-type opioid receptor [2] and 27.1% in [3].
For `O=C(NCC1NCCc2ccccc21)c1ccc(Cl)c(Cl)c1` (configuration not stated), the IC50 entry was “Not Active” in data set [1] (hek293), 230 nM on Mu-type opioid receptor [2] and 810 nM in data set [3]. Further, on Mu-type opioid receptor [4], the Ki worked out at 54.3 nM. Moreover, the Imax in [3] came out at 27.5%.
Consider `Cc1ccc(C(=O)NCC2c3ccccc3CCN2CCCl)cc1` (configuration not stated), for which the figures for the IC50 entry (in data set [1] (hek293); on Mu-type opioid receptor [2]; in data set [3]) were “Not Active”, 200 nM and 2940 nM, respectively. The Imax at Mu-type opioid receptor [2] came to 67.8%; in [3], 30%.
Consider `Cc1cccc(C(=O)NCC2NCCc3ccccc32)c1` (configuration not stated), for which the IC50 entry is “Not Active” in data set [1] (hek293), 1270 nM at Mu-type opioid receptor [2] and 140 nM in [3]. Besides, the Imax was found to be 68.3% at Mu-type opioid receptor [2] and 26.6% in data set [3].
In the case of `O=C(NCC1NCCc2ccccc21)c1ccc(Cl)cc1` (configuration not stated), the values for the Imax in [1] and in data set [3] were 24.1% and 35.1%, respectively. The values for the IC50 (in data set [1] (read-out: IC50); on Mu-type opioid receptor [2]; in data set [3]) were 4180 nM, 220 nM and 90 nM, respectively.
With `O=C(NCC1c2ccccc2CCN1S(=O)(=O)c1ccc(Br)cc1OC(F)(F)F)C1CCCCC1` (configuration not stated), the concentration at 0.8 h in data set [5] is 1290 ng/mL; in [6], 1440 ng/g. In addition, the Kp at 0.8 h in [7] was found to be 1.1.
Consider `CCc1ccc(C(=O)NCC2NCCc3ccccc32)cc1` (configuration not stated), for which the IC50 result in data set [1] (hek293) was “Not Active”; on Mu-type opioid receptor [2], 310 nM; in data set [3] it was 570 nM. At Mu-type opioid receptor [4], the Ki was 4.65 nM. Further, the Imax was found to be 63.9% at Mu-type opioid receptor [2] and 29% in [3].
In the case of `CCc1ccc(C(=O)NCC2c3ccccc3CCN2C)cc1` (configuration not stated), the Imax stood at 22.1% in data set [1], 61.9% at Mu-type opioid receptor [2] and 26.3% in data set [3]. The results for the half-maximal inhibitory concentration (IC50) (in data set [1] (read-out: IC50); at Mu-type opioid receptor [2]; in data set [3]) were 190 nM, 3280 nM and 490 nM, respectively. Moreover, the Ki on Mu-type opioid receptor [4] was determined as 2.27 nM.
For the molecule `Cc1ccc(C(=O)NCC2NCCc3ccccc32)cc1C` (configuration not stated), the IC50 entry in [1] (hek293) is “Not Active”; on Mu-type opioid receptor [2], 290 nM; in [3], 8930 nM. Further, on Mu-type opioid receptor [4], the Ki came out at 36.4 nM. The Imax in data set [3] turned out to be 27%.
Consider `C[C@@H](NC(=O)[C@@H](N)Cc1ccc(O)cc1)C(=O)NCC(=O)N(C)[C@@H](Cc1ccccc1)C(=O)NCCO`, for which the Imax on Mu-type opioid receptor [2] worked out at 82.4%.
Consider `Cc1ccc(C(=O)NCC2c3ccccc3CCN2C)cc1C` (configuration not stated), for which the half-maximal inhibitory concentration (IC50) result in data set [1] (hek293) was “Not Active”; on Mu-type opioid receptor [2], 80 nM; in data set [3], 80 nM. In addition, the result on Mu-type opioid receptor [8] and in the data set with Mus musculus [9] was inactive. Moreover, the Activity on Mu-type opioid receptor [10] was found to be 20%. In addition, the values for the concentration at 0.8 h in data set [5] and in [6] were 1460 ng/mL and 7420 ng/g, respectively. For the same molecule, the inhibition constant Ki on Mu-type opioid receptor [4] was found to be 30.8 nM. In addition, the figures for the Imax (at Mu-type opioid receptor [2]; in data set [3]) were 69.3% and 34.6%, respectively. The Kp at 0.8 h in [7] was determined as 5.1. Also, the AUC in the data set on Mus musculus [11] is 268 min.sec.
Consider `COc1ccc(C(=O)NCC2NCCc3ccccc32)cc1` (configuration not stated), for which the IC50 result in data set [1] (hek293) was “Not Active”; on Mu-type opioid receptor [2], 1580 nM; in [3] it was 50 nM. Moreover, the Imax in data set [3] is 21.8%.
Take `CN1CCc2ccccc2C1CNC(=O)c1ccc(Cl)c(Cl)c1` (configuration not stated): the IC50 entry in data set [1] (hek293) was “Not Active”; on Mu-type opioid receptor [2], 50 nM; in data set [3], 440 nM. Besides, the result (on Mu-type opioid receptor [8]; with Mus musculus [9]; in data set [12]) was inactive. Further, at Mu-type opioid receptor [10], the Activity is 20%. Besides, the concentration at 0.8 h came out at 2610 ng/mL in data set [5] and 11700 ng/g in [6]. Besides, the Ki on Mu-type opioid receptor [4] came to 6.91 nM. Moreover, the ED50 with Mus musculus [13] is 1.06 mg/kg. For the same molecule, the Imax was 69.5% at Mu-type opioid receptor [2] and 28.3% in data set [3]. Also, in data set [7], the Kp at 0.8 h turned out to be 4.5. For the same molecule, the AUC in the data set on Mus musculus [11] was determined as 371 min.sec.
With `Cc1ccc(C(=O)NCC2NCCc3ccccc32)cc1` (configuration not stated), at Mu-type opioid receptor [4], the inhibitory constant (Ki) amounted to 6.47 nM.

The values are drawn from ChEMBL document CHEMBL3992491, “Discovery, structure-activity relationship studies, and anti-nociceptive effects of N-(1,2,3,4-tetrahydro-1-isoquinolinylmethyl)benzamides as novel opioid receptor agonists” (Eur J Med Chem, 2017).
